Results: EP1330254B1, “TREATMENT OF CANCERS BY APLIDINE IN CONJUNCTION WITH CARNITINE OR ACETYLCARNITINE” (priority 2000, dated 2002)
Read-outs that look alike come from different tables or passages of the source. Starred links: 1 amine or outer side, 2 acyl side, 3 side chain; linkers in the order of their positions; H or OH if unused. Positions of bridges follow the written chain, without caps; N, C: chain ends. Non-standard residues stand in square brackets, D forms with d. Residues, ends and D or L forms follow the SMILES beside them. *: point of attachment. X1 = CC[C@H](C)[C@@H](N[*:1])[C@@H](O)CC(=O)O[C@H](C(=O)[C@H](C)C(=O)[*:2])C(C)C; NMeY = CN[C@@H](Cc1ccc(O)cc1)C(=O)O; dNMeL = CN[C@H](CC(C)C)C(=O)O; Pyruvoyl = CC(=O)C(=O)*

Legend:
[1] = L-carnitine as myoprotector in aplidine patients (study APL-A-003-98); format: in vivo, human
Procedure: More generally, the invention involves the use of a muscle protector in conjunction with aplidine therapy. We have found in particular that carnitine is beneficial in treating myotoxicity that is associated with chemotherapy with the experimental drug aplidine. […] When L-carnitine 4.5 g/day was added to the therapy (at doses of 1.5 g three times daily), or […] (at doses of […] 3 times daily) patients were able to tolerate doses of aplidine up to 6000 mcg/m 2 every second week. […] Therefore, muscle protectors such as L-carnitine is a useful myoprotector for patients being treated with aplidine or an aplidine analogue.
L-carnitine at a dose of 1.5 grams 3 times per day or 0.033 g/kg 3 times per day was started in all patients of study APL-A-003-98.
The dose may be decreased to manage the above effects.

[2] = tested on: panel of 25 human tumor cell lines; test: tumor protection by L-carnitine, cell line panel; format: cell-based; settings: initial results
Procedure: The possibility of tumor protection by L-carnitine was evaluated using a panel of 25 human tumor cell lines.

[3] = tested on: gene (FLT1) encoding the receptor of the Vascular Endothelial Growth Factor (VEGF); test: inhibition of gene expression; format: cell-based
VEGF protein = test: VEGF production by tumour cells; format: cell-based
human bladder cancer = test: bladder cancer animal models; format: in vivo
[4] = stability of aplidine solution and lyophilised formulation; format: physicochemical; settings: solubilised aplidine, heat and light stress testing conditions
Procedure: In a currently preferred embodiment freeze-drying was performed from a 500 mg/mL solution of aplidine in 40% (v/v) tert-butanol in Water for Injection (WfI) containing 25 mg/mL D-mannitol as bulking agent.

[5] = Phase I dosing regimes with and without carnitine (MTD, DLT, RD); format: in vivo, human; design: recommended dose, RD: unit not given here
Description: The Recommended Dose (RD) is the highest dose which can be safely administered to a patient producing tolerable, manageable and reversibly toxicity according to the Common Toxicity Criteria established by the National Cancer Institute, (USA) with no more than 2 out of 6 patients presenting any dose limiting toxicities (DLT). Guidelines for cancer therapy frequently call for administration of chemotherapeutic agents at the highest safe dose at which toxicity is manageable in order to achieve maximum efficacy (DeVita, V.T. Jr., Hellman, S. and Rosenberg, S.A., Cancer: Principles and Practice of Oncology, 3rd ed., 1989, Lipincott, Philadelphia).
DLTs for aplidine using this method of treatment were determined in clinical studies. These studies established a recommended dose level for differing kinds of dosing protocols.

[6] = Phase I study, 24h continuous infusion every other week: toxicities; format: in vivo, human
Procedure: (§1) A phase I and pharmacokinetic study of aplidine, given as a 24h continuous infusion every other week in patients with solid tumours and non-Hodgkin lymphoma
Characterisation of Muscular Toxicity (DLT)

[7] = Phase I study, 24h continuous infusion every other week: pharmacokinetics; format: in vivo, human; settings: for half-life: human, iv
Procedure: as §1

[8] = tested on: solid tumours and non-Hodgkin lymphoma; test: Phase I study, 24h continuous infusion every other week: antitumour activity; format: in vivo, human; settings: patients
Procedure: as §1

[9] = Phase I studies: features of aplidine myotoxicity; format: in vivo, human
Description: The presentation is variable among patients. Mild cases have muscle cramps (at doses from 3200 mcg/m2 every 2 weeks), while in more severe cases the symptoms are associated to reversible increases in creatin-kinase (CK) reaching up to grade 3. In the dose-limiting cases there is weakness of proximal distribution. The effect has a delayed onset, appearing after 3 to 8 (median 4) infusions of the drug.

MDA-MB231 = settings: aplidine 50 nmol/L; cited from earlier work
MCF-7 = settings: aplidine 50 nmol/L; cited from earlier work
CT-1 = CT-1 epithelial-like cell line; cited from earlier work
CT-2 = CT-2 epithelial-like cell line; cited from earlier work
HT-29 = HT-29 human colon cancer cell line; cited from earlier work
ornithine decarboxylase = molecular target: T1, ornithine decarboxylase (Homo sapiens, UniProt P11926); settings: all three cell lines CT-1, CT-2, HT-29; cited from earlier work
T1 construct: endogenous in cells; host or cells: CT-1, CT-2 and HT-29 colon cell lines

MDA-MB231 and MCF-7 = settings: treated breast cancer cells; cited from earlier work
cell cycle = settings: flow cytometric analysis; cited from earlier work
P388 leukaemia = settings: mice; cited from earlier work
B16 melanoma = settings: mice; cited from earlier work
lewis lung carcinomas = settings: cited from earlier work
[10] = tested on: Non-small cell lung cancer, breast cancer and melanoma cell lines; settings: continuous exposure; cited from earlier work
human cancer xenografts = settings: cited from earlier work
gastric tumours = settings: 1.25 mg/kg; cited from earlier work
prostate tumour = settings: 1.25 mg/kg, prostate tumour growth inhibition; cited from earlier work
[11] = Phase I study, 24h continuous infusion every other week: toxicities; format: in vivo, human; settings: Pat #27, medullary thyroid carcinoma, 6000 µg/m^2 weekly
[12] = L-carnitine at the doses used in this study
[13] = 24 hour infusion every 2 weeks, L-carnitine daily
[14] = weekly 1 hour infusion for 3 weeks, 1 week rest
[15] = weekly 24 hour infusion for 3 weeks, 1 week rest
[16] = 200 mcg/m^2/2wks, patients affected of 3
[17] = 400 mcg/m^2/2wks, patients affected of 3
[18] = 800 mcg/m^2/2wks, patients affected of 3
[19] = 1600 mcg/m^2/2wks, patients affected of 6
[20] = 3200 mcg/m^2/2wks, patients affected of 3
[21] = 4000 mcg/m^2/2wks, patients affected of 3
[22] = 5000 mcg/m^2/2wks, patients affected of 3
[23] = 6000 mcg/m^2/2wks, patients affected of 12
[24] = 7000 mcg/m^2/2wks, patients affected of 7

T1 sequence (P11926 whole entry): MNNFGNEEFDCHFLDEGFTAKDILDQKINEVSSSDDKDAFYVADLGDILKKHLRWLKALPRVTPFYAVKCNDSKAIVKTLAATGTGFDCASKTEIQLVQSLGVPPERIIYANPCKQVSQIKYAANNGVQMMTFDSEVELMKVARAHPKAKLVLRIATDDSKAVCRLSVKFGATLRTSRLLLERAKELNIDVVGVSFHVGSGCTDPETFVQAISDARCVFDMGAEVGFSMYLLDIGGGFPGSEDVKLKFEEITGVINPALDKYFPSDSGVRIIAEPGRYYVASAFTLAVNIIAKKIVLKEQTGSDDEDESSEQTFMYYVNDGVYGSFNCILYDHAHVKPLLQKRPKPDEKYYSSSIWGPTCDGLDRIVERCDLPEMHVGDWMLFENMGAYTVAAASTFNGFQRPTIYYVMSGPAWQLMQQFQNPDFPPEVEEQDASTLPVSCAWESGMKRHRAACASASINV

## C[N+](C)(C)C[C@H](O)CC(=O)[O-] [L-carnitine]
[1]; 4 patients continuing aplidine, L-carnitine 1.5 grams 3 times per day or 0.033 g/kg 3 times per day
  outcome in patients with prior skeletal muscle toxicity: no skeletal muscle symptoms and just transient grade 1 CK increases
[1]; 11 patients
  outcome in patients on L-carnitine prophylaxis from the beginning: just an asymptomatic G1 increase in CK
[1]; [12]
  only toxicity reported: grade 1 abdominal discornfort and diarrhea
  tolerability: well tolerated
[1]; L-carnitine prophylaxis, 24 h every other week infusion study
  increase of aplidine MTD: 33%
[1]; two patients, grade 3 with weakness and grade 1 with asthenia
  outcome after L-carnitine at reduced doses: symptomatic increases in CK
[2]
  effect on the antitumor activity of aplidine: lack of effect

## CC[C@H](C)[C@H]1NC(=O)[C@@H](NC(=O)[C@@H](CC(C)C)N(C)C(=O)[C@@H]2CCCN2C(=O)C(C)=O)[C@@H](C)OC(=O)[C@H](Cc2ccc(OC)cc2)N(C)C(=O)[C@@H]2CCCN2C(=O)[C@H](CC(C)C)NC(=O)[C@@H](C)C(=O)[C@H](C(C)C)OC(=O)C[C@@H]1O [aplidine, Dehydrodidemnin B] (Pyruvoyl-P[dNMeL]T[X1]LP[NMeY](Me); ester 3-C)
[3]
  expression of the gene (FLT1): inhibits expression
VEGF protein
  production of the VEGF protein: severely inhibit production
Human bladder cancer
  activity on human bladder cancer: exceedingly high activity
[4]
  degradation: substantial degradation
[5]; 1-hour infusion for 5 consecutive days every 3 weeks
  dose-limiting toxicity: Muscular/long lasting emesis
[5]; 24 hour infusion every 2 weeks
  dose-limiting toxicity: Muscular
  recommended dose, RD: 5000
[5]; [13]
  dose-limiting toxicity: Flu-like syndrome
  recommended dose, RD: 7000
[5]; [14]
  dose-limiting toxicity: Muscular
  recommended dose, RD: 3250
[5]; [15]
  dose-limiting toxicity: Muscular/ hepatic
  recommended dose, RD: 3750
[5]; with L-carnitine 0.1 g/kg /day, for Phase II studies
  RD: 7 mg/m^2
[6]; 2 patients
  muscle biopsies, E/M: partial disappearance of thick filaments of myosin
[6]; 3 patients (5000 and 6000 µg/m^2), CPK MM increase
  CPK elevations: minor elevations of CPKs (≥G2)
[6]; [16]
  Nausea/vomiting G2: 2
  Transaminitis G2: 1
[6]; [17]
  Asthenia G2: 2
  Hypertension G2: 1
  Nausea/vomiting G2: 1
[6]; [18]
  Flushing G1: 1
  Muscle cramps G1+G2: 2
[6]; [19]
  Asthenia G2: 2
  Asthenia G3: 1
  Muscle cramps G1+G2: 1
  Nausea/vomiting G2: 4
  Transaminitis G3: (1)
[6]; [20]
  Asthenia G2: 1
  Flushing G1: 1
  Muscle cramps G1+G2: 2
  Muscle pain G2: (1)
  Nausea/vomiting G3: (1)
[6]; [21]
  Asthenia G2: 1
  Flushing G1: 1
  Muscle cramps G1+G2: 2
  Muscle pain G1: 2
  Nausea/vomiting G2: 2
  Pain central catheter G2: 2
[6]; [22]
  Asthenia G3: (1)
  CPK elevation G3: (1) [1]
  CPK elevation G4: (1) [1]
  Muscle cramps G1+G2: 2
  Muscle pain G1: 1
  Muscle weakness G1: 1
  Nausea/vomiting G2: 1
  Transaminitis G2: 1
[6]; 6000 mcg/m^2
  dose limiting toxicity (drug induced muscular changes): 1/9
[6]; [23]
  Asthenia G2: 6
  CPK elevation G2: 1(1)
  CPK elevation G3: 1(1)
  Muscle cramps G1+G2: 1
  Muscle pain G1: 1
  Muscle pain G2: 2
  Muscle weakness G1: 1(1)
  Muscle weakness G2: 1(1)
  Nausea/vomiting G2: 2
[6]; [24]
  Asthenia G2: 2
  CPK elevation G2: 1
  Flushing G1: 1
  Muscle pain G1: 1
  Nausea/vomiting G2: 1
  Neutrophenia G4: 1
  Transaminitis G2: 1
[6]; Pat #27, 6000 µg/m^2
  toxicity recovered after treatment discontinuation: ≤ 3 weeks
[7]; in vivo, the 3 patients with clear muscular toxicity, read-out: t ½
  half-life: > 44 h
[7]; plasma, preliminary compartmental analysis, 24 h infusion, read-out: median half-life, longer terminal phase (converted)
  half-life: 25.8 h
[7]; plasma, preliminary compartmental analysis, first-order 2-compartment model, read-out: median half-life, rapid initial phase (converted)
  half-life: 0.64 h
[7]; plasma, quartiles 15.7-35.0, read-out: t ½, median (converted)
  half-life: 23.8 h
[7]; within the constraints of the low sample size
  PK profile: dose-linear
[8]
  antitumour activity: noted in patients with NHL and renal carcinoma
[9]; median
  delayed onset of myotoxicity, infusions of the drug, median: 4 infusions
[9]; more severe cases
  reversible increases in creatin-kinase (CK): ≤ 3 grade
[9]; most biopsied patients
  light microscopy of muscle: just minimal necrosis or no changes at all
[1]; every second week, 24-hour infusion, with L-carnitine 4.5 g/day or 0.1mg/kg
  doses of aplidine patients were able to tolerate: up to 6000 mcg/m 2
MDA-MB231
  inhibited the growth: 17%
MCF-7
  inhibited the growth: 47%
CT-1
  cytotoxic activity: dose-dependent cytotoxic activity
CT-2
  cytotoxic activity: dose-dependent cytotoxic activity
HT-29
  cytotoxic activity: dose-dependent cytotoxic activity
Ornithine decarboxylase
  ornithine decarboxylase activity: decreased
MDA-MB231 and MCF-7
  spermidine and spermine: significant increase
Cell cycle
  cell cycle perturbations: did not induce any apparent cell cycle periubations
P388 leukaemia
  activity against implanted tumour: active
  optimal dose: 160 micrograms/kg
B16 melanoma
  activity against implanted tumour: active
  optimal dose: 160 micrograms/kg
Lewis lung carcinomas
  activity in SC implanted lewis lung carcinomas: active
[10]
  concentrations at which cell lines were sensitive: >= 0.001 micromol/L
Human cancer xenografts; 2.1 mg/kg, near complete remissions in some animals
  treated/control (T/C) tumour ratio: 9%
Human cancer xenografts; mice bearing human cancer xenografts
  maximum tolerated dose: 2.1 mg/kg
Gastric tumours
  T/C: 14%
Prostate tumour
  T/C: 25%
[11]
  muscular toxicity (DLT): symptomatic G3 CPK with G2 muscular pain
